Tests used:
[1] = Particulate material present in solutions after mixing; assay type: physicochemical; settings: for solubility in water during imbibition: 0.25 mg/ml treatment solutions
Protocol: Each of the compounds noted above is weighed to the nearest 0.1 mg in a pre-tarred 1.5-ml polypropylene vial with a screw-top lid. Absolute ethanol is added to the weighed powder to prepare a 25 mg/ml solution. Solutions are thoroughly mixed using a vortex mixer. A stainless steel spatula is used to crush any particulate material remaining after extensive mixing. Vials are left overnight at room temperature, and then remixed to form the concentrated ethanol stock solutions. The presence of undissolved material is noted throughout this procedure.

[2] = tested on: non-transgenic soybean line A4922; assay: Field trial of seed coatings under soil compaction / different soils, wild-type soybean; assay type: in vivo, Glycine max; settings: for Count (emergence) / Height (total plant height): A4922; for plant height dose/response in wild-type line A4922 (FIG. 40): ten days after planting
Protocol: The second trial (data reported in Tables 22-24) tested the precursors under conditions of soil compaction.
As noted above, the second trial tested the noted precursors under conditions of soil compaction. These experiments are performed in the same manner as in the first trial, except that the soil is compacted with an all-terrain vehicle.
“Height” equals total plant height in cm.

[3] = Half-lives of 14C-labelled GA compounds in planta; settings: ^14C-labelled compound on seed of Asgrow 3237 soybeans
Protocol: ^14C-radiolabelled compounds are obtained from Lew Mander (Australian National University). ^14C-GA3 is dissolved in water:ethanol, 80:20, v/v; ^14C-GA9 and ^14C-GA12 are dissolved in 100% ethanol. Seeds of Asgrow 3237 soybeans are treated separately with solutions of each of the ^14C-radiolabelled compounds (1.7-6.8 μg; 10-40 ppm; 111,000-2,000,000 dpm/seed) by placing one to four μl of the dosing solution directly on the seed coat (^14C-GA3, GA9, and GA12), or on the hilum portion of the seed (^14C-GA3). After evaporation of the carrier solvent (approx. one hour), the treated seed is planted in containers containing approximately 30 gm of Metromix-350, and transferred to a growth chamber. Plants are grown under a 12 hour light/12 hour dark regime at 92° F. (33° C.)and 75% humidity. The pattern of uptake and translocation of ^14C-radioactivity in treated seed is monitored up to 12 days past initial treatment. For most experiments, three replicate plants are harvested at one hour after treatment, one day after treatment (DAT), two DAT, three DAT, six or seven DAT, and 12 DAT. […] The level of ^14C-radioactivity in different plant parts is determined by extraction of plant tissues with aqueous methanol and scintillation counting. The extent of metabolism of the ^14C-labelled GA compounds in planta is determined by HPLC analysis of plant extracts. […]
The general extraction procedure consisted of blending the plant parts in a high speed polytron tissue homogenizer for 1-5 minutes with 10-20 ml of ice-cold methanol:water, 80:20, v/v, followed by vacuum filtration through a Whatman glass fiber filter. The filter cake is re-extracted as necessary using the procedure described above until an insignificant amount of radioactivity is removed. Prior to combining the extracts from each sample, aliquots are weighed and analyzed by liquid scintillation counting (LSC) to determine the amount of extracted radioactivity in each extract. Aliquots of the air-dried filter cakes are combusted and analyzed by LSC in order to determine the amount of non-extracted radioactivity. […]

[4] = Heavy soil - Loose, target rate 1.0 μg/seed, Table 23
[5] = Heavy soil - Loose, target rate 10.0 μg/seed, Table 23
[6] = Heavy soil - Loose, target rate 40.0 μg/seed, Table 23
[7] = Heavy soil - compacted, target rate 1.0 μg/seed, Table 23
[8] = Heavy soil - compacted, target rate 10.0 μg/seed, Table 23
[9] = Heavy soil - compacted, target rate 40.0 μg/seed, Table 23
[10] = Heavy soil - loose, target rate 40.0 μg/seed, Table 22
[11] = Light soil - Compacted, target rate 40.0 μg/seed, Table 22
[12] = Light soil - Loose, target rate 1.0 μg/seed, Table 24
[13] = Light soil - Loose, target rate 10.0 μg/seed, Table 24
[14] = Light soil - Loose, target rate 40.0 μg/seed, Table 24
[15] = Light soil - compacted, target rate 1.0 μg/seed, Table 24
[16] = Light soil - compacted, target rate 10.0 μg/seed, Table 24
[17] = Light soil - compacted, target rate 40.0 μg/seed, Table 24
[18] = Heavy soil - loose, target rate 2.0 μg/seed, Table 22
[19] = Heavy soil - loose, target rate 8.0 μg/seed, Table 22
[20] = Light soil - Compacted, target rate 2.0 μg/seed, Table 22
[21] = Light soil - Compacted, target rate 8.0 μg/seed, Table 22
[22] = Light soil - Loose, target rate 2.0 μg/seed, Table 24
[23] = Light soil - Loose, target rate 8.0 μg/seed, Table 24
[24] = Light soil - Loose, target rate 16.0 μg/seed, Table 24
[25] = Light soil - compacted, target rate 2.0 μg/seed, Table 24
[26] = Light soil - compacted, target rate 8.0 μg/seed, Table 24
[27] = Light soil - compacted, target rate 16.0 μg/seed, Table 24

SMILES: C=C1C[C@]23C[C@H]1CC[C@H]2[C@]1(C)CCC[C@@](C)(C(=O)O)[C@H]1[C@@H]3C(=O)O [GA12]
- solubility in water during imbibition [1]: less soluble in water during imbibition
- Particulate material present, Initial Mixing ([1]; 25 mg/ml in absolute ethanol): YES
- Particulate material present, O/N Incubation ([1]; 25 mg/ml in ethanol, overnight at room temperature, remixed): YES
- Count (emergence) [2, 4]: 36.0 a
- Height (total plant height) [2, 4]: 4.7e-15 g·cm
- Count (emergence) [2, 5]: 26.7 b-c
- Height (total plant height) [2, 5]: 4.0 g·cm
- Count (emergence) [2, 6]: 33.0 ab
- Height (total plant height) [2, 6]: 4.3 g·cm
- Count (emergence) [2, 7]: 17.0 a
- Height (total plant height) [2, 7]: 4.3 cde cm
- Count (emergence) [2, 8]: 12.3 abc
- Height (total plant height) [2, 8]: 3.7 e cm
- Count (emergence) [2, 9]: 13.7 abc
- Height (total plant height) [2, 9]: 4.0 de cm
- Count (emergence) [2, 10]: 33 ab
- Height (total plant height) [2, 10]: 4.3 g·cm
- Count (emergence) [2, 11]: 41 a
- Height (total plant height) [2, 11]: 4.3 g·cm
- Count (emergence) [2, 12]: 43.7 abc
- Height (total plant height) [2, 12]: 4.0 hi cm
- Count (emergence) [2, 13]: 47.7 a
- Height (total plant height) [2, 13]: 3.7 i cm
- Count (emergence) [2, 14]: 44.0 abc
- Height (total plant height) [2, 14]: 4.0 hi cm
- Count (emergence) [2, 15]: 39.3 ab
- Height (total plant height) [2, 15]: 4.3 g·cm
- Count (emergence) [2, 16]: 41.7 a
- Height (total plant height) [2, 16]: 4.0 g·cm
- Count (emergence) [2, 17]: 41.0 a
- Height (total plant height) [2, 17]: 4.3 g·cm
- plant height dose/response in wild-type line A4922 (FIG. 40) ([2]; compacted soil): inhibited plant height
- Half-life (days) in planta [3]: <1 days

SMILES: C=C1C[C@]23C[C@H]1CC[C@H]2[C@@]12CCC[C@@](C)(C(=O)O1)[C@H]2[C@@H]3C(=O)O [GA9]
- Particulate material present, 100X Diln w/water ([1]; 0.25 mg/ml compound in water): YES
- solubility in water during imbibition [1]: less soluble in water during imbibition
- Count (emergence) [2, 18]: 33 ab
- Height (total plant height) [2, 18]: 5.3 g·cm·days
- Count (emergence) [2, 19]: 29 a-d
- Height (total plant height) [2, 19]: 6.3 cde cm
- Count (emergence) [2, 20]: 38 abc
- Height (total plant height) [2, 20]: 5.7 def cm
- Count (emergence) [2, 21]: 22 de
- Height (total plant height) [2, 21]: 6.0 de cm
- Count (emergence) [2, 22]: 41.3 abc
- Height (total plant height) [2, 22]: 5.0 gh cm
- Count (emergence) [2, 23]: 39.3 bc
- Height (total plant height) [2, 23]: 7.0 ef cm
- Count (emergence) [2, 24]: 39.0 bc
- Height (total plant height) [2, 24]: 8.0 de cm
- Count (emergence) [2, 25]: 38.0 abc
- Height (total plant height) [2, 25]: 5.7 def cm
- Count (emergence) [2, 26]: 21.7 de
- Height (total plant height) [2, 26]: 6.0 de cm
- Count (emergence) [2, 27]: 20.0 de
- Height (total plant height) [2, 27]: 8.3 c cm
- emergence at approximately equivalent biological response (height) ([2]; compacted soil, FIG. 40): 93%
- plant height dose/response in wild-type line A4922 (FIG. 40) ([2]; compacted soil): less active than GA3, GA3-3-acetate, and GA5
- Half-life (days) in planta [3]: <1 days

From patent US6723897B2, “Methods for controlling gibberellin levels” (Monsanto Technology, LLC, priority 1998, dated 2004)
